Assay results reported in ChEMBL document CHEMBL1201861, “Genomics of Drug Sensitity in Cancer screening data, Wellcome Trust Sanger Institute”.

Assays:
Experiment in all cases: cells
CW-2 = type: functional, cell-based, Homo sapiens; details: Homo sapiens, CW-2;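 note: growth inhibition of CW-2 cells, read out by a cell viability assay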
Description: SANGER: Inhibition of human CW-2 cell growth in a cell viability assay.

D-502MG = type: functional, cell-based, Homo sapiens; details: Homo sapiens, D-502MG
Description: SANGER: Inhibition of human D-502MG cell growth in a cell viability assay.

DMS-114 = type: functional, cell-based, Homo sapiens; details: Homo sapiens, DMS-114
EM-2 = type: functional, cell-based; details: Homo sapiens;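 note: growth inhibition of EM-2 cells, read out with a cell viability assay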
Description: SANGER: Inhibition of human EM-2 cell growth in a cell viability assay.

ES3 = type: functional, cell-based, Homo sapiens; details: Homo sapiens, ES3;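 note: growth inhibition of ES3 cells, read out with a cell viability assay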
Description: SANGER: Inhibition of human ES3 cell growth in a cell viability assay.

EW-3 = type: functional, cell-based; details: Homo sapiens;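 note: cell viability assay read-out, IC50 reflects inhibition of growth of the EW-3 cells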
Description: SANGER: Inhibition of human EW-3 cell growth in a cell viability assay.

FaDu = type: functional, cell-based, Homo sapiens; details: Homo sapiens, FaDu;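 note: cell viability readout of growth inhibition in FaDu cells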
Description: SANGER: Inhibition of human FADU cell growth in a cell viability assay.

G-402 = type: functional, cell-based, Homo sapiens; details: Homo sapiens, G-402
Description: SANGER: Inhibition of human G-402 cell growth in a cell viability assay.

HCC1954 = type: functional, cell-based, Homo sapiens; details: Homo sapiens, HCC1954;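 note: growth inhibition of human HCC1954 cells, read out with a cell viability assay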
Description: SANGER: Inhibition of human HCC1954 cell growth in a cell viability assay.

HH = type: functional, cell-based; details: Homo sapiens
Description: SANGER: Inhibition of human HH cell growth in a cell viability assay.

JEG-3 = type: functional, cell-based, Homo sapiens; details: Homo sapiens, JEG-3;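 note: growth inhibition of human JEG-3 cells, read out with a cell viability assay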
Description: SANGER: Inhibition of human JEG-3 cell growth in a cell viability assay.

KY821 = type: functional, cell-based; details: Homo sapiens;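 note: growth inhibition of human KY821 cells, read out by a cell viability assay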
Description: SANGER: Inhibition of human KY821 cell growth in a cell viability assay.

LB831-BLC = type: functional, cell-based, Homo sapiens; details: Homo sapiens, LB831-BLC;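 note: growth inhibition of LB831-BLC cells, read out with a cell viability assay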
Description: SANGER: Inhibition of human LB831-BLC cell growth in a cell viability assay.

LS-1034 = type: functional, cell-based, Homo sapiens; details: Homo sapiens, LS-1034
Description: SANGER: Inhibition of human LS-1034 cell growth in a cell viability assay.

M14 = type: functional, cell-based, Homo sapiens; details: Homo sapiens, M14;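 note: growth inhibition of M14 cells, read out with a cell viability assay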
Description: SANGER: Inhibition of human M14 cell growth in a cell viability assay.

MDA-MB-175-VII = type: functional, cell-based, Homo sapiens; details: Homo sapiens, MDA-MB-175-VII
MLMA = type: functional, cell-based, Homo sapiens; details: Homo sapiens, MLMA;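 note: growth inhibition of MLMA cells (human), determined through a cell viability readout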
Description: SANGER: Inhibition of human MLMA cell growth in a cell viability assay.

MV4-11 = type: functional, cell-based, MV-4-11; details: Homo sapiens;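 note: cell viability readout measuring growth inhibition of human MV-4-11 cells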
Description: SANGER: Inhibition of human MV-4-11 cell growth in a cell viability assay.

Mo = type: functional, cell-based; details: Homo sapiens
Description: SANGER: Inhibition of human Mo-T cell growth in a cell viability assay.

NB10 = type: functional, cell-based, Homo sapiens; details: Homo sapiens, NB10;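 note: growth inhibition of NB10 cells, read out by a cell viability assay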
Description: SANGER: Inhibition of human NB10 cell growth in a cell viability assay.

NB13 = type: functional, cell-based, Homo sapiens; details: Homo sapiens, NB13;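 note: cell viability readout measuring growth inhibition of human NB13 cells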
Description: SANGER: Inhibition of human NB13 cell growth in a cell viability assay.

NCI-H1092 = type: functional, cell-based; details: Homo sapiens;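 note: cell growth inhibition measured with a cell viability assay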
Description: SANGER: Inhibition of human NCI-H1092 cell growth in a cell viability assay.

NCI-H1155 = type: functional, cell-based; details: Homo sapiens;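 note: cell growth inhibition measured by a viability assay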
Description: SANGER: Inhibition of human NCI-H1155 cell growth in a cell viability assay.

NCI-H1437 = type: functional, cell-based, Homo sapiens; details: Homo sapiens, NCI-H1437;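 note: growth inhibition of human NCI-H1437 cells, read out by a cell viability assay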
Description: SANGER: Inhibition of human NCI-H1437 cell growth in a cell viability assay.

NCI-H1581 = type: functional, cell-based, Homo sapiens; details: Homo sapiens, NCI-H1581;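 note: cell growth inhibition read out by a viability assay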
Description: SANGER: Inhibition of human NCI-H1581 cell growth in a cell viability assay.

NCI-H209 = type: functional, cell-based; details: Homo sapiens;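 note: growth inhibition of human NCI-H209 cells, measured by a cell viability assay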
Description: SANGER: Inhibition of human NCI-H209 cell growth in a cell viability assay.

NCI-H2170 = type: functional, cell-based, Homo sapiens; details: Homo sapiens, NCI-H2170;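 note: cell viability assay measuring growth inhibition of human NCI-H2170 cancer cells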
Description: SANGER: Inhibition of human NCI-H2170 cell growth in a cell viability assay.

SNU1 = type: functional, cell-based; details: Homo sapiens;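 note: growth inhibition of human NCI-SNU-1 cells, measured with a cell viability assay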
Description: SANGER: Inhibition of human NCI-SNU-1 cell growth in a cell viability assay.

NEC8 = type: functional, cell-based, Homo sapiens; details: Homo sapiens, NEC8;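 note: growth inhibition of human NEC8 cells, read out by a cell viability assay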
Description: SANGER: Inhibition of human NEC8 cell growth in a cell viability assay.

OE19 = type: functional, cell-based, Homo sapiens; details: Homo sapiens, OE19;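 note: growth inhibition of OE19 cells, measured through a cell viability read-out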
Description: SANGER: Inhibition of human OE19 cell growth in a cell viability assay.

P30-OHK = type: functional, cell-based; details: Homo sapiens;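 note: growth inhibition of the P30-OHK cell line, read out with a cell viability assay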
Description: SANGER: Inhibition of human P30-OHK cell growth in a cell viability assay.

PANC-03-27 = type: functional, cell-based, Homo sapiens; details: Homo sapiens, PANC-03-27
Description: SANGER: Inhibition of human PANC-03-27 cell growth in a cell viability assay.

RCM-1 = type: functional, cell-based, Homo sapiens; details: Homo sapiens, RCM-1;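 note: growth inhibition of the RCM-1 line, determined with a cell viability readout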
Description: SANGER: Inhibition of human RCM-1 cell growth in a cell viability assay.

Ramos-2G6-4C10 = type: functional, cell-based; details: Homo sapiens;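 note: growth inhibition of the cell line, measured by a cell viability read-out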
Description: SANGER: Inhibition of human Ramos-2G6-4C10 cell growth in a cell viability assay.

SCC-4 = type: functional, cell-based, Homo sapiens; details: Homo sapiens, SCC-4;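 note: growth inhibition of human SCC-4 cells, read out as cell viability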
Description: SANGER: Inhibition of human SCC-4 cell growth in a cell viability assay.

SW1463 = type: functional, cell-based, Homo sapiens; details: Homo sapiens, SW1463;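 note: growth inhibition of SW1463 cells, determined with a cell viability assay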
Description: SANGER: Inhibition of human SW1463 cell growth in a cell viability assay.

SW-620 = type: functional, cell-based, Homo sapiens; details: Homo sapiens, SW-620;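 note: growth inhibition of human SW-620 cells, measured by a cell viability assay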
Description: SANGER: Inhibition of human SW620 cell growth in a cell viability assay.

CWR22R = type: functional, cell-based, Homo sapiens; details: Homo sapiens, 22Rv1;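 note: growth inhibition of 22Rv1 cells, read out with a cell viability assay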
Description: SANGER: Inhibition of human 22RV1 cell growth in a cell viability assay.

697 = type: functional, cell-based; details: Homo sapiens
Description: SANGER: Inhibition of human 697 cell growth in a cell viability assay.

8-MG-BA = type: functional, cell-based, Homo sapiens; details: Homo sapiens, 8-MG-BA;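 note: growth inhibition of 8-MG-BA cells, read out with a cell viability assay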
Description: SANGER: Inhibition of human 8-MG-BA cell growth in a cell viability assay.

AM-38 = type: functional, cell-based, Homo sapiens; details: Homo sapiens, AM-38;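 note: growth inhibition of AM-38 cells of human origin, read out by a cell viability assay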
Description: SANGER: Inhibition of human AM-38 cell growth in a cell viability assay.

BE-13 = type: functional, cell-based; details: Homo sapiens;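 note: growth inhibition of human BE-13 cells, measured with a cell viability assay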
Description: SANGER: Inhibition of human BE-13 cell growth in a cell viability assay.

BHY = type: functional, cell-based, Homo sapiens; details: Homo sapiens, BHY;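 note: cell growth inhibition read out by a viability assay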
Description: SANGER: Inhibition of human BHY cell growth in a cell viability assay.

BT-474 = type: functional, cell-based, Homo sapiens; details: Homo sapiens, BT-474
Description: SANGER: Inhibition of human BT-474 cell growth in a cell viability assay.

BXPC-3 = type: functional, cell-based, Homo sapiens; details: Homo sapiens, BXPC-3;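 note: growth inhibition of human BxPC-3 cells, read out by a cell viability assay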
Description: SANGER: Inhibition of human BxPC-3 cell growth in a cell viability assay.

C2BBe1 = type: functional, cell-based, Homo sapiens; details: Homo sapiens, C2BBe1;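 note: growth inhibition of C2BBe1 cells, read out through a viability assay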
Description: SANGER: Inhibition of human C2BBe1 cell growth in a cell viability assay.

U-87 MG = type: functional, cell-based, U-87MG ATCC; details: Homo sapiens;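 note: growth inhibition of the cells measured with a viability assay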
Description: SANGER: Inhibition of human U-87-MG cell growth in a cell viability assay.

U-251 = type: functional, cell-based, Homo sapiens; details: Homo sapiens, U-251;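 note: growth inhibition of human U-251 cells, read out through a cell viability assay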
Description: SANGER: Inhibition of human U251 cell growth in a cell viability assay.

UMC-11 = type: functional, cell-based, Homo sapiens; details: Homo sapiens, UMC-11;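 note: growth inhibition of UMC-11 cells, read out with a cell viability assay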
Description: SANGER: Inhibition of human UMC-11 cell growth in a cell viability assay.

COLO-684 = type: functional, cell-based; details: Homo sapiens
Description: SANGER: Inhibition of human COLO-684 cell growth in a cell viability assay.

MMAC-SF = type: functional, cell-based, Homo sapiens; details: Homo sapiens, MMAC-SF;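 note: growth inhibition of human MMAC-SF cells, read out with a cell viability assay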
Description: SANGER: Inhibition of human MMAC-SF cell growth in a cell viability assay.

For `COc1cc(F)c(F)c(Nc2ccc(I)cc2F)c1NS(=O)(=O)C1(CC(O)CO)CC1` (stereo unspecified), the IC50 (CW-2) was over 5 µM, the IC50 (D-502MG) was 3.81 µM and the IC50 (DMS-114) was over 5 µM. For the same molecule, the IC50 (EM-2) was over 5 µM, the IC50 (ES3) was over 5 µM and the IC50 (EW-3) was 0.103 µM. The IC50 (FaDu) was over 5 µM, the IC50 (G-402) was over 5 µM and the IC50 (HCC1954) was over 5 µM. For the same molecule, the IC50 (HH) was over 5 µM, the IC50 (JEG-3) was over 5 µM and the IC50 (KY821) was 0.107 µM. The IC50 (LB831-BLC) was over 5 µM, the IC50 (LS-1034) was 1.62 µM and the IC50 (M14) was 0.0286 µM. It also gave an IC50 (MDA-MB-175-VII) of 2.57 µM, an IC50 (MLMA) of over 5 µM and an IC50 (MV4-11) of 0.812 µM. It also gave an IC50 (Mo) of over 5 µM, an IC50 (NB10) of over 5 µM and an IC50 (NB13) of over 5 µM. The IC50 (NCI-H1092) was over 5 µM, the IC50 (NCI-H1155) was over 5 µM and the IC50 (NCI-H1437) was 0.702 µM. For the same molecule, the IC50 (NCI-H1581) was over 5 µM, the IC50 (NCI-H209) was over 5 µM and the IC50 (NCI-H2170) was over 5 µM. For the same molecule, the IC50 (SNU1) was 1.24 µM, the IC50 (NEC8) was over 5 µM and the IC50 (OE19) was over 5 µM. The IC50 (P30-OHK) was over 5 µM, the IC50 (PANC-03-27) was 0.768 µM and the IC50 (RCM-1) was 0.136 µM. It also gave an IC50 (Ramos-2G6-4C10) of over 5 µM, an IC50 (SCC-4) of 5 µM and an IC50 (SW1463) of 4.13 µM. It also gave an IC50 (SW-620) of 0.276 µM, an IC50 (CWR22R) of over 5 µM and an IC50 697 of over 5 µM. It also gave an IC50 (8-MG-BA) of over 5 µM, an IC50 (AM-38) of over 5 µM and an IC50 (BE-13) of over 5 µM. The IC50 (BHY) was 3.29 µM, the IC50 (BT-474) was over 5 µM and the IC50 (BXPC-3) was 1.6 µM. For the same molecule, the IC50 (C2BBe1) was 0.559 µM, the IC50 (U-87 MG) was over 5 µM and the IC50 (U-251) was over 5 µM. The IC50 (UMC-11) was over 5 µM and the IC50 (COLO-684) was over 5 µM.
For `O=C1N=C(NCc2cccs2)S/C1=C\c1ccc2ncccc2c1`, the IC50 (CW-2) was over 5 µM, the IC50 (D-502MG) was over 5 µM and the IC50 (DMS-114) was over 5 µM. For the same molecule, the IC50 (EM-2) was over 5 µM, the IC50 (ES3) was over 5 µM and the IC50 (EW-3) was over 5 µM. The IC50 (FaDu) was over 5 µM, the IC50 (G-402) was over 5 µM and the IC50 (HCC1954) was over 5 µM. It also gave an IC50 (HH) of over 5 µM, an IC50 (JEG-3) of over 5 µM and an IC50 (KY821) of over 5 µM. It also gave an IC50 (LB831-BLC) of over 5 µM, an IC50 (LS-1034) of over 5 µM and an IC50 (M14) of over 5 µM. It also gave an IC50 (MDA-MB-175-VII) of over 5 µM, an IC50 (MLMA) of over 5 µM and an IC50 (MMAC-SF) of over 5 µM. The IC50 (MV4-11) was over 5 µM, the IC50 (Mo) was over 5 µM and the IC50 (NB10) was over 5 µM. The IC50 (NB13) was over 5 µM, the IC50 (NCI-H1092) was over 5 µM and the IC50 (NCI-H1155) was over 5 µM. For the same molecule, the IC50 (NCI-H1437) was over 5 µM, the IC50 (NCI-H1581) was over 5 µM and the IC50 (NCI-H209) was over 5 µM. The IC50 (NCI-H2170) was over 5 µM, the IC50 (SNU1) was 0.731 µM and the IC50 (NEC8) was 4.47 µM. For the same molecule, the IC50 (OE19) was over 5 µM, the IC50 (P30-OHK) was over 5 µM and the IC50 (PANC-03-27) was over 5 µM. The IC50 (RCM-1) was over 5 µM, the IC50 (Ramos-2G6-4C10) was over 5 µM and the IC50 (SCC-4) was over 5 µM. It also gave an IC50 (SW1463) of over 5 µM, an IC50 (SW-620) of over 5 µM and an IC50 (CWR22R) of over 5 µM. The IC50 697 was over 5 µM, the IC50 (8-MG-BA) was 3.14 µM and the IC50 (AM-38) was over 5 µM. For the same molecule, the IC50 (BE-13) was over 5 µM, the IC50 (BHY) was over 5 µM and the IC50 (BT-474) was over 5 µM. For the same molecule, the IC50 (BXPC-3) was over 5 µM, the IC50 (C2BBe1) was over 5 µM and the IC50 (U-87 MG) was over 5 µM. For the same molecule, the IC50 (U-251) was 1.64 µM, the IC50 (UMC-11) was over 5 µM and the IC50 (COLO-684) was over 5 µM.
